Measured values: paper PMC10257182, “Discovery of senolytics using machine learning” (Nature Communications, 2023)
Counter-ions that a name gives are not always drawn. Like-named read-outs stand apart in the source and are kept apart here.

Test system: non-senescent control IMR90 ER:RAS cells
Test: Nuclei count (Hoechst, high content imaging) senolytic assay, OIS model, non-senescent control cells
Type: cell-based, human
Details: Homo sapiens
Outline: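 Senolytic read-out as total nuclei per well by automated Hoechst imaging after 72 h compound exposure (10 μM to 10 nM, 10-point […], triplicate), relative to untreated controls. Paired cultures: IMR90 ER:RAS kept non-senescent or made senescent with 100 nM final 4-OHT; ouabain served as positive control.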

[1] = IMR-90, 72 h, Control, log (dose) [M] -5, 72 h, mean n=3 (Fig 3C), read-out: Mean % Cell Survival
[2] = IMR-90, 72 h, Control, log (dose) [M] -5.33, 72 h, mean n=3 (Fig 3C), read-out: Mean % Cell Survival
[3] = IMR-90, 72 h, Control, log (dose) [M] -5.66, 72 h, mean n=3 (Fig 3C), read-out: Mean % Cell Survival
[4] = IMR-90, 72 h, Control, log (dose) [M] -6, 72 h, mean n=3 (Fig 3C), read-out: Mean % Cell Survival
[5] = IMR-90, 72 h, Control, log (dose) [M] -6.33, 72 h, mean n=3 (Fig 3C), read-out: Mean % Cell Survival
[6] = IMR-90, 72 h, Control, log (dose) [M] -6.66, 72 h, mean n=3 (Fig 3C), read-out: Mean % Cell Survival
[7] = IMR-90, 72 h, Control, log (dose) [M] -7, 72 h, mean n=3 (Fig 3C), read-out: Mean % Cell Survival
[8] = IMR-90, 72 h, Control, log (dose) [M] -7.33, 72 h, mean n=3 (Fig 3C), read-out: Mean % Cell Survival
[9] = IMR-90, 72 h, Control, log (dose) [M] -7.66, 72 h, mean n=3 (Fig 3C), read-out: Mean % Cell Survival
[10] = IMR-90, 72 h, Control, log (dose) [M] -8, 72 h, mean n=3 (Fig 3C), read-out: Mean % Cell Survival
[11] = IMR-90, Control cells, log (dose) [M] -5, individual replicates, SUP FIG 4C, read-out: % Cell Survival
[12] = IMR-90, Control cells, log (dose) [M] -6.66, individual replicates, SUP FIG 4C, read-out: % Cell Survival
[13] = IMR-90, Control cells, log (dose) [M] -7.33, individual replicates, SUP FIG 4C, read-out: % Cell Survival
[14] = IMR-90, Control, log (dose) [M] -5.66, read-out: % Cell Survival
[15] = IMR-90, Control, log (dose) [M] -5, read-out: % Cell Survival
[16] = IMR-90, Control, log (dose) [M] -6.33, read-out: % Cell Survival
[17] = IMR-90, Control, log (dose) [M] -6.66, read-out: % Cell Survival
[18] = IMR-90, Control, log (dose) [M] -7, read-out: % Cell Survival
[19] = IMR-90, Control, log (dose) [M] -7.33, read-out: % Cell Survival
[20] = IMR-90, Control, log (dose) [M] -7.66, read-out: % Cell Survival
[21] = IMR-90, Control, log (dose) [M] -8, read-out: % Cell Survival
[22] = IMR-90, Control, log (dose) [M] -5.33, read-out: % Cell Survival
[23] = IMR-90, Control, log (dose) [M] -6, read-out: % Cell Survival

`CO[C@H]1C[C@@H]2CC[C@@H](C)[C@@](O)(O2)C(=O)C(=O)N2CCCC[C@H]2C(=O)O[C@H]([C@H](C)C[C@@H]2CC[C@@H](O)[C@H](OC)C2)CC(=O)[C@H](C)/C=C(\C)[C@@H](O)[C@@H](OC)C(=O)[C@H](C)C[C@H](C)/C=C/C=C/C=C/1C` [Rapamycin, rapamycin, reference compound] was tested, and the viability at 10 µM [1] was 98.8%, the viability at 4.677 µM [2] was 100% and the viability at 2.188 µM [3] was 89.2%. The viability at 1 µM [4] was 83.1%, the viability at 0.4677 µM [5] was 85.7% and the viability at 0.2188 µM [6] was 86.6%. For the same compound, the viability at 0.1 µM [7] was 92.6%, the viability at 0.04677 µM [8] was 86.3% and the viability at 0.02188 µM [9] was 95.8%. For the same compound, the viability at 0.01 µM [10] was 100%, the viability at 10 µM [11] was 91.9% and the viability at 0.4677 µM (IMR-90, Control cells, log (dose) [M] -6.33, individual replicates, SUP FIG 4C, read-out: % Cell Survival) was 77.2%. For the same compound, the viability at 0.2188 µM [12] was 83%, the viability at 0.1 µM (IMR-90, Control cells, log (dose) [M] -7, individual replicates, SUP FIG 4C, read-out: % Cell Survival) was 91% and the viability at 0.04677 µM [13] was 89.7%. It also gave a viability at 0.02188 µM (IMR-90, Control cells, log (dose) [M] -7.66, individual replicates, SUP FIG 4C, read-out: % Cell Survival) of 93%, a viability at 0.01 µM (IMR-90, Control cells, log (dose) [M] -8, individual replicates, SUP FIG 4C, read-out: % Cell Survival) of 109% and a viability at 2.19 µM [14] of 80.5%.

`CO[C@H]1C[C@@H]2CC[C@@H](C)[C@@](O)(O2)C(=O)C(=O)N2CCCC[C@H]2C(=O)O[C@H]([C@H](C)C[C@@H]2CC[C@@H](OP(C)(C)=O)[C@H](OC)C2)CC(=O)[C@H](C)/C=C(\C)[C@@H](O)[C@@H](OC)C(=O)[C@H](C)C[C@H](C)/C=C/C=C/C=C/1C` [Ridaforolimus, ridaforolimus, reference compound] was tested, and the viability at 10 µM [1] was 75.2%, the viability at 4.677 µM [2] was 82.6% and the viability at 2.188 µM [3] was 82.3%. It also gave a viability at 1 µM [4] of 77.9%, a viability at 0.4677 µM [5] of 87.6% and a viability at 0.2188 µM [6] of 91.5%. For the same compound, the viability at 0.1 µM [7] was 77.4%, the viability at 0.04677 µM [8] was 106% and the viability at 0.02188 µM [9] was 88.9%. It also gave a viability at 0.01 µM [10] of 92.5%, a viability at 10 µM [15] of 119% and a viability at 2.19 µM [14] of 107%. It also gave a viability at 0.468 µM [16] of 105%, a viability at 0.219 µM [17] of 109% and a viability at 0.1 µM [18] of 97%. It also gave a viability at 0.04677 µM [19] of 115%, a viability at 0.0219 µM [20] of 113% and a viability at 0.01 µM [21] of 113%.

For `O=c1cc(-c2ccc(O)cc2)oc2cc(O)c(O)c(O)c12` [Scutellarein, scutellarein], the viability at 10 µM [1] was 97.3%, the viability at 4.677 µM [2] was 95.7% and the viability at 2.188 µM [3] was 88.9%. The viability at 1 µM [4] was 88.2%, the viability at 0.4677 µM [5] was 95.4% and the viability at 0.2188 µM [6] was 109%. The viability at 0.1 µM [7] was 118%, the viability at 0.04677 µM [8] was 130% and the viability at 0.02188 µM [9] was 117%. It also gave a viability at 0.01 µM [10] of 121%, a viability at 10 µM [15] of 112% and a viability at 4.68 µM [22] of 101%. The viability at 2.19 µM [14] was 102%, the viability at 1 µM [23] was 108% and the viability at 0.468 µM [16] was 101%. The viability at 0.219 µM [17] was 107%, the viability at 0.1 µM [18] was 107% and the viability at 0.04677 µM [19] was 102%. The viability at 0.0219 µM [20] was 99.8% and the viability at 0.01 µM [21] was 107%.

`C[C@H](CCC(=O)NCCS(=O)(=O)O)[C@H]1CC[C@H]2[C@@H]3[C@H](O)C[C@@H]4C[C@H](O)CC[C@]4(C)[C@H]3C[C@H](O)[C@]12C` [Taurocholic acid sodium, taurocholic acid sodium salt hydrate] showed a viability at 10 µM (IMR-90, 72 h, read-out: Mean % Cell Survival, Control, log (dose) [M] -5, 72 h, mean n=3 (Fig 3C)) of 105%, a viability at 4.677 µM (IMR-90, 72 h, read-out: Mean % Cell Survival, Control, log (dose) [M] -5.33, 72 h, mean n=3 (Fig 3C)) of 107% and a viability at 2.188 µM (IMR-90, 72 h, read-out: Mean % Cell Survival, Control, log (dose) [M] -5.66, 72 h, mean n=3 (Fig 3C)) of 115%. The viability at 1 µM (IMR-90, 72 h, read-out: Mean % Cell Survival, Control, log (dose) [M] -6, 72 h, mean n=3 (Fig 3C)) was 108%, the viability at 0.4677 µM (IMR-90, 72 h, read-out: Mean % Cell Survival, Control, log (dose) [M] -6.33, 72 h, mean n=3 (Fig 3C)) was 104% and the viability at 0.2188 µM (IMR-90, 72 h, read-out: Mean % Cell Survival, Control, log (dose) [M] -6.66, 72 h, mean n=3 (Fig 3C)) was 95.4%. The viability at 0.1 µM (IMR-90, 72 h, read-out: Mean % Cell Survival, Control, log (dose) [M] -7, 72 h, mean n=3 (Fig 3C)) was 81%, the viability at 0.04677 µM (IMR-90, 72 h, read-out: Mean % Cell Survival, Control, log (dose) [M] -7.33, 72 h, mean n=3 (Fig 3C)) was 94.8% and the viability at 0.02188 µM (IMR-90, 72 h, read-out: Mean % Cell Survival, Control, log (dose) [M] -7.66, 72 h, mean n=3 (Fig 3C)) was 103%. It also gave a viability at 0.01 µM (IMR-90, 72 h, read-out: Mean % Cell Survival, Control, log (dose) [M] -8, 72 h, mean n=3 (Fig 3C)) of 98.6%, a viability at 10 µM (IMR-90, read-out: % Cell Survival, Control cells, log (dose) [M] -5, individual replicates, SUP FIG 4C) of 105% and a viability at 4.677 µM (IMR-90, read-out: % Cell Survival, Control cells, log (dose) [M] -5.33, individual replicates, SUP FIG 4C) of 105%. It also gave a viability at 2.188 µM (IMR-90, read-out: % Cell Survival, Control cells, log (dose) [M] -5.66, individual replicates, SUP FIG 4C) of 122%, a viability at 0.2188 µM (IMR-90, read-out: % Cell Survival, Control cells, log (dose) [M] -6.66, individual replicates, SUP FIG 4C) of 98.1% and a viability at 0.02188 µM (IMR-90, read-out: % Cell Survival, Control cells, log (dose) [M] -7.66, individual replicates, SUP FIG 4C) of 103%. For the same compound, the viability at 0.01 µM (IMR-90, read-out: % Cell Survival, Control cells, log (dose) [M] -8, individual replicates, SUP FIG 4C) was 95%, the viability at 10 µM (IMR-90, read-out: % Cell Survival, Control, log (dose) [M] -5) was 101% and the viability at 4.68 µM (IMR-90, read-out: % Cell Survival, Control, log (dose) [M] -5.33) was 103%. The viability at 2.19 µM (IMR-90, read-out: % Cell Survival, Control, log (dose) [M] -5.66) was 108%, the viability at 1 µM (IMR-90, read-out: % Cell Survival, Control, log (dose) [M] -6) was 99.9% and the viability at 0.468 µM (IMR-90, read-out: % Cell Survival, Control, log (dose) [M] -6.33) was 102%. It also gave a viability at 0.219 µM (IMR-90, read-out: % Cell Survival, Control, log (dose) [M] -6.66) of 100%, a viability at 0.1 µM (IMR-90, read-out: % Cell Survival, Control, log (dose) [M] -7) of 87.4% and a viability at 0.04677 µM (IMR-90, read-out: % Cell Survival, Control, log (dose) [M] -7.33) of 102%. It also gave a viability at 0.0219 µM (IMR-90, read-out: % Cell Survival, Control, log (dose) [M] -7.66) of 97.8% and a viability at 0.01 µM (IMR-90, read-out: % Cell Survival, Control, log (dose) [M] -8) of 95.8%.

`COC[C@H]1C[C@@H](c2nc(-c3ccc4c(c3)COc3cc5c(ccc6nc([C@@H]7CC[C@H](C)N7C(=O)[C@@H](NC(=O)OC)C(C)C)[nH]c65)cc3-4)c[nH]2)N(C(=O)[C@H](NC(=O)OC)c2ccccc2)C1` [Velpatasvir, velpatasvir, reference compound] was tested, and the viability at 10 µM [1] was 119%, the viability at 4.677 µM [2] was 116% and the viability at 2.188 µM [3] was 113%. It also gave a viability at 1 µM [4] of 115%, a viability at 0.4677 µM [5] of 86.1% and a viability at 0.2188 µM [6] of 99.9%. For the same compound, the viability at 0.1 µM [7] was 98.3%, the viability at 0.04677 µM [8] was 106% and the viability at 0.02188 µM [9] was 110%. It also gave a viability at 0.01 µM [10] of 96.2%, a viability at 10 µM [11] of 113% and a viability at 0.2188 µM [12] of 91.6%. It also gave a viability at 0.04677 µM [13] of 101%, a viability at 10 µM [15] of 82.9% and a viability at 4.68 µM [22] of 85.2%. The viability at 2.19 µM [14] was 80.3%, the viability at 1 µM [23] was 80.7% and the viability at 0.219 µM [17] was 86%. It also gave a viability at 0.1 µM [18] of 91.2%, a viability at 0.04677 µM [19] of 89.7% and a viability at 0.0219 µM [20] of 95.3%. It also gave a viability at 0.01 µM [21] of 97.1%.
